ChEMBL document CHEMBL1201862, “PubChem BioAssay data set” (2004)
The source made the active and inactive calls.

Assays:
[1] = biological target: Latent membrane protein 1 (Human herpesvirus 4 (strain B95-8), UniProt P03230); experiment: LMP1 TES1 pathway selectivity over dsRED control – imaging, HEK293T, dual-color eGFP/dsRED, cherry-picks, selectivity assay for LMP1 NF-kB inhibitor project, dose response (AID 588398); assay type: functional, cell-based
[2] = biological target: T1, Sentrin-specific protease 6 (Homo sapiens, UniProt Q9GZR1); experiment: inhibition of human SENP6 catalytic domain – biochemical, luminescence, set 2, SAR follow-up (AID 588598); assay type: functional
T1 sequence (Q9GZR1 whole entry): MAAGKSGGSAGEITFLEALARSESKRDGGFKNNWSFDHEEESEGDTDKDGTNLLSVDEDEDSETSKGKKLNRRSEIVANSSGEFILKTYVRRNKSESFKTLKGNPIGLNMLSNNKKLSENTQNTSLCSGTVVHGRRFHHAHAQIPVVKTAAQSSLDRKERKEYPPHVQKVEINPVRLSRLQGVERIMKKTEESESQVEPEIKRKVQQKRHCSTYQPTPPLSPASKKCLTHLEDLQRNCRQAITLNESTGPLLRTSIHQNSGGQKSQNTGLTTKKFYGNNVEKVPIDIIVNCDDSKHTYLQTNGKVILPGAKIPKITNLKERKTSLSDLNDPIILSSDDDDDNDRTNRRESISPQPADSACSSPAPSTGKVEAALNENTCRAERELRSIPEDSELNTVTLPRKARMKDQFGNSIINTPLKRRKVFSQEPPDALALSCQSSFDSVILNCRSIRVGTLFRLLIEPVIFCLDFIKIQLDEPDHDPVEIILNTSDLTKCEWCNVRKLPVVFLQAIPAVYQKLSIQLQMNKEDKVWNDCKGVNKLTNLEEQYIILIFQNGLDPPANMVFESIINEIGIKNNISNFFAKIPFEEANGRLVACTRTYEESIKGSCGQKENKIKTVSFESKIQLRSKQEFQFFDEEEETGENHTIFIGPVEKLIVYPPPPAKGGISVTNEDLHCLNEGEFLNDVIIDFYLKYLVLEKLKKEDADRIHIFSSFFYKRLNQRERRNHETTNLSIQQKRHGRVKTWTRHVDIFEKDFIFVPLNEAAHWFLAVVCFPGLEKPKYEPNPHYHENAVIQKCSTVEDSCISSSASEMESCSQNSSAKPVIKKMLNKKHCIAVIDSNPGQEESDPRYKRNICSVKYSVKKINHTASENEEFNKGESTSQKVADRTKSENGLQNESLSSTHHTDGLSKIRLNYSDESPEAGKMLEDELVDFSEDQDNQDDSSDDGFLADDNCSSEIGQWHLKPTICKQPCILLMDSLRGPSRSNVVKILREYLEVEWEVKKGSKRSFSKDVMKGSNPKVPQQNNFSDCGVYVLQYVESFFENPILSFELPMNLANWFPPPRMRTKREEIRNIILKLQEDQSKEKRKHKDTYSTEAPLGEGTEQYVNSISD

[3] = biological target: T1, Sentrin-specific protease 6; experiment: SAR Analysis of small molecule inhibitors of Sentrin-specific protease 6 (SENP6) using a Luminescent assay. [Related pubchem assays (depositor defined):AID2582, AID2599]; assay type: functional
[4] = biological target: T2, Caspase-3 (Homo sapiens, UniProt P42574); experiment: SAR Analysis of small molecule inhibitors of Sentrin-specific proteases (SENPs) using a Caspase-3 Selectivity assay. [Related pubchem assays (depositor defined):AID2540, AID2599, AID434973, AID489001]; assay type: functional
T2 sequence (P42574 whole entry): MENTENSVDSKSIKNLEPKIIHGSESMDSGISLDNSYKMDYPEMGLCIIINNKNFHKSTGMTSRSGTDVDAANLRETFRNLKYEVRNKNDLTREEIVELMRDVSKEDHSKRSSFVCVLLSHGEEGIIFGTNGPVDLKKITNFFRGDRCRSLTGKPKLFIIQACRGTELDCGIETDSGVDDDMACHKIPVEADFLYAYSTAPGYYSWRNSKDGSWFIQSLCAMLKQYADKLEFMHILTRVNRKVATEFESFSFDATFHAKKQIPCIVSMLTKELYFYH

[5] = biological target: T3, Sentrin-specific protease 8 (Homo sapiens, UniProt Q96LD8); experiment: inhibition of human SENP8 cleavage activity – biochemical, luminescence, SAR follow-up (AID 504501); assay type: functional
T3 sequence (Q96LD8 whole entry): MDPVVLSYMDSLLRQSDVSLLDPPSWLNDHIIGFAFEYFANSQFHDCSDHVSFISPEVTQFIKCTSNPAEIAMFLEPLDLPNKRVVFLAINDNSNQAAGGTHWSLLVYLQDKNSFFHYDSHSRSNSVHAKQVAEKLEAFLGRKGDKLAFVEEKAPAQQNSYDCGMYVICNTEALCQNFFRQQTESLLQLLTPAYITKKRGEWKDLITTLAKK

[6] = biological target: T4, Sentrin-specific protease 7 (Homo sapiens, UniProt Q9BQF6); experiment: inhibition of human SENP7 cleavage activity – biochemical, luminescence, SAR follow-up (AID 504497); assay type: functional
T4 sequence (Q9BQF6 whole entry): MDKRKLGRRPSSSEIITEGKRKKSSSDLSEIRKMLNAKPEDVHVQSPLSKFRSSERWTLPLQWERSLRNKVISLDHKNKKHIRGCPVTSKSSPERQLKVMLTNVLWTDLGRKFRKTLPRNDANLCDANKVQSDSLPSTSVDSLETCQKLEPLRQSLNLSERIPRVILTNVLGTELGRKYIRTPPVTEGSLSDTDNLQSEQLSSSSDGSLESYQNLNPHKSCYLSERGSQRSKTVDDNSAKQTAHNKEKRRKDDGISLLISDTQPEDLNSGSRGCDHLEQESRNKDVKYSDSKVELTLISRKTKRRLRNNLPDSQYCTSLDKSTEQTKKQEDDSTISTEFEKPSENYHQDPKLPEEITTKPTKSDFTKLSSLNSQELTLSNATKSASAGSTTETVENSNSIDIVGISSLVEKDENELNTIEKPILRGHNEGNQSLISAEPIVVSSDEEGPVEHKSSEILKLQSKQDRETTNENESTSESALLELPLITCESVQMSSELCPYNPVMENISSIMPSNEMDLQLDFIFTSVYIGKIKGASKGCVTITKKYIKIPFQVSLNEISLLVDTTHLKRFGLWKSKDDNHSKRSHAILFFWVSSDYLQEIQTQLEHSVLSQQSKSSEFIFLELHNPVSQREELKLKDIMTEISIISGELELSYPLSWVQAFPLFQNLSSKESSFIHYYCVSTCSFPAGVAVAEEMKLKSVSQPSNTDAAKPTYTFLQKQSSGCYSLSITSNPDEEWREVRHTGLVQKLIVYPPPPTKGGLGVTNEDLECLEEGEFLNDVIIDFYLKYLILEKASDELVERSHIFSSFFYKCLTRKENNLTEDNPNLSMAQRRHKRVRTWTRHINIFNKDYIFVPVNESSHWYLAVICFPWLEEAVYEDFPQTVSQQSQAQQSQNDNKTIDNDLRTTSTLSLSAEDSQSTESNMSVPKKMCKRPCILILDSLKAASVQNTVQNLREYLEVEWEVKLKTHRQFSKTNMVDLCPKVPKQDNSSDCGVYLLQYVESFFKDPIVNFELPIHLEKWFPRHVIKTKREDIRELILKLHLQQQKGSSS

[7] = biological target: T3, Sentrin-specific protease 8; experiment: inhibition of sentrin protease 8 – biochemical, luminescence, set 2, SAR follow-up (AID 588601); assay type: functional
[8] = biological target: T2, Caspase-3; experiment: inhibition of recombinant caspase-3 activity – biochemical, luminescence, set 2, selectivity assay for SENP protease inhibitor project, SAR follow-up (AID 588599); assay type: functional
[9] = A549 cell cytotoxicity, dose response, cytotoxicity control, plate reader, cherry-pick, antagonist series (AID 743412); assay type: functional, cell-based
[10] = test system: HEK293; experiment: EBV LMP1 TES2 canonical NF-kB signalling blockers – cell-based, HEK293, luciferase, cherry-pick, dose response (AID 588343); assay type: functional; details: Homo sapiens
[11] = loss of viability in HepG2 cells – cell-based, CellTiter-Glo, cherry-picked, cytotoxicity control for Shn3 inhibitor project, dose response (AID 624134); assay type: functional
[12] = non-specific 3'UTR reporter inhibition in Clone20-Shn3RL – cell-based, Renilla luciferase, cherry-picked, counter-screen for Shn3 inhibitor project, dose response (AID 624133); assay type: functional
[13] = viability loss in HEK293T cells – cell-based, cherry-picks, cytotoxicity control for HIV Vif inhibitor project, dose response (AID 652208); assay type: functional
[14] = toxicity toward HepG2 liver cells – cell-based, plate reader, cherry-pick, antagonist series, cytotoxicity control, dose response (AID 743416); assay type: functional
[15] = blockers of bursicon-stimulated LGR2 cAMP reporter – cell-based, HEK293, CRE-luciferase reporter, cherry pick, set 2, dose response (AID 743343); assay type: functional;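 also: transfected cells were stimulated with diluted bursicon conditioned medium after compound addition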
[16] = reduction of Shn3 3'UTR-driven luciferase in osteoblasts – cell-based, Clone20 osteoblasts, firefly luciferase, cherry-picked, dose response (AID 624132); assay type: functional;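 also: firefly luciferase luminescence from reporter carrying the Shn3 3'UTR in osteoblasts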
[17] = viability loss in HEK293 cells – cell-based, plate reader, cherry-picked samples, cytotoxicity control, dose response (AID 743446); assay type: functional
[18] = biological target: T5, Phospholipase D1 (Homo sapiens, UniProt Q13393); experiment: cellular phospholipase D1 inhibition IC50 – cell-based, dose response (AID 602151); assay type: functional;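 also: cellular PLD1 assay in Calu-1 cells stimulated with PMA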
T5 sequence (Q13393 whole entry): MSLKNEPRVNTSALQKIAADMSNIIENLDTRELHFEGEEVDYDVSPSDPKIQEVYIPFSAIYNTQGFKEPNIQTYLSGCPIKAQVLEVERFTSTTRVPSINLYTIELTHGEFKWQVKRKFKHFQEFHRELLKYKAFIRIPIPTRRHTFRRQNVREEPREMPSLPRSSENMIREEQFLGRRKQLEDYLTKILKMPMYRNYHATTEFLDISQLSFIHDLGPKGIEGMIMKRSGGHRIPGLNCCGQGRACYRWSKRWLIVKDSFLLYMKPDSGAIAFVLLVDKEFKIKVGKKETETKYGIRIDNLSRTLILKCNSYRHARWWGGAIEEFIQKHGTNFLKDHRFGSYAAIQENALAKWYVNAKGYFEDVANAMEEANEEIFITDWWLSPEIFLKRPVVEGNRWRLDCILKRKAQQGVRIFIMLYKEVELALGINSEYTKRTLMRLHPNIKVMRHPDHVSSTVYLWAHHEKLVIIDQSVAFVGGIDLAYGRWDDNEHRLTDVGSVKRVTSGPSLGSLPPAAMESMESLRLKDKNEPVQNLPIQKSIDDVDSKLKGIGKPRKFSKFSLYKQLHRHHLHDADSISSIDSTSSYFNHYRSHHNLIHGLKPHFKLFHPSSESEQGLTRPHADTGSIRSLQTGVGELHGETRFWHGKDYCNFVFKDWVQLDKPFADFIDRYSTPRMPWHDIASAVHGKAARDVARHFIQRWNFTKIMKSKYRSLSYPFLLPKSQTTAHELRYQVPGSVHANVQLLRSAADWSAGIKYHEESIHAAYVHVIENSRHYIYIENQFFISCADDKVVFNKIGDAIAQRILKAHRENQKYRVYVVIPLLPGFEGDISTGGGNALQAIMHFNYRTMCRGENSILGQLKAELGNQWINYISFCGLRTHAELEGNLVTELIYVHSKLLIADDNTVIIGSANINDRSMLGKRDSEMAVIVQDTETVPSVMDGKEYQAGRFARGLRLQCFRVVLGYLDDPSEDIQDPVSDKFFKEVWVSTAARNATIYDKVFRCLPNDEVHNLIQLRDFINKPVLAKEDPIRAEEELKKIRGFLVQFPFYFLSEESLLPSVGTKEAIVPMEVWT

[19] = biological target: Phospholipase D2 (Homo sapiens, UniProt O14939); experiment: cellular phospholipase D2 inhibition IC50 – cell-based, dose response (AID 602147); assay type: functional;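 also: cellular assay in HEK293 cells overexpressing GFP-tagged PLD2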
Phospholipase D2, sequence (O14939 whole entry): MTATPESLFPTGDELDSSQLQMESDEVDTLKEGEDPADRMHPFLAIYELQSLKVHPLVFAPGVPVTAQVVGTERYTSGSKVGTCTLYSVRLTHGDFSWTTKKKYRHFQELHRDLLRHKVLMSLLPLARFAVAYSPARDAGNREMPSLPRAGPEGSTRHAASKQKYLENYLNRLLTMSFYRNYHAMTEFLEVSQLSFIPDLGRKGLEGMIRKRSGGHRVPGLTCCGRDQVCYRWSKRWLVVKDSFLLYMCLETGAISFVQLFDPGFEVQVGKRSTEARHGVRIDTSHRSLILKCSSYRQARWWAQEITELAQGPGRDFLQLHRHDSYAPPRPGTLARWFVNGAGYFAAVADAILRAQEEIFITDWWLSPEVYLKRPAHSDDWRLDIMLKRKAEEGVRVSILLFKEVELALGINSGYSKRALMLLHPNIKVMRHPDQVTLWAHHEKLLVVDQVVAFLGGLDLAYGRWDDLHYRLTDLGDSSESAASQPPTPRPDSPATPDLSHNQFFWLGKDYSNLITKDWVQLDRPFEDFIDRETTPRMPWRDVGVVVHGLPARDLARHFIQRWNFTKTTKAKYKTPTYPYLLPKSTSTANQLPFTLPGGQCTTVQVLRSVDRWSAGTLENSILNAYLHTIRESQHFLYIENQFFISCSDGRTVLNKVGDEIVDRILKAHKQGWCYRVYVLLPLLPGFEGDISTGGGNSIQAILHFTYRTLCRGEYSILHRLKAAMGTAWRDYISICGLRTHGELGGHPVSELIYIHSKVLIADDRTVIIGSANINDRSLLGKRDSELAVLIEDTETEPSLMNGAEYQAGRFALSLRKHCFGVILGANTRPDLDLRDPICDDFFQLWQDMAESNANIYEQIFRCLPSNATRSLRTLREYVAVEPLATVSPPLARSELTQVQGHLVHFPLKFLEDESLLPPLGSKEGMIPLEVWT

Latent membrane protein 1, sequence (P03230 whole entry, the tested form may be a part): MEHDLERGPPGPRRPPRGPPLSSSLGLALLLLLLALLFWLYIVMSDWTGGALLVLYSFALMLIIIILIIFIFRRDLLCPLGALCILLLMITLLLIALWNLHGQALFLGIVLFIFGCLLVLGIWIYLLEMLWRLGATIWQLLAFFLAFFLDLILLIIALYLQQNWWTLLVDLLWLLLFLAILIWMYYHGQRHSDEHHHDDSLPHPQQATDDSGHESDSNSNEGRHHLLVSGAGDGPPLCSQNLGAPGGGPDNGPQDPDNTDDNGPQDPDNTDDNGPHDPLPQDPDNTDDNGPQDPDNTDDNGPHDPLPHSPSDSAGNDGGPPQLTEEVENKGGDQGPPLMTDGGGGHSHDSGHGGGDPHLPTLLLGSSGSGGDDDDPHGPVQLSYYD

COc1ccc(C)cc1S(=O)(=O)N(CC(=O)Nc1cc([N+](=O)[O-])ccc1C)c1ccc(C)c(C)c1
active: AC50 [1] 29.5 µM

CN(C)c1ccc(/C=C/c2noc(-c3ccccc3O)n2)cc1
active: IC50 [2] 1.45 µM | IC50 [3] 1.9 µM | IC50 [4] 1.3 µM | IC50 [5] 2.1 µM | IC50 [6] 1.7 µM | IC50 [7] 1.42 µM | IC50 [8] 1.16 µM

CC(C)OC(=O)c1ccc(NCc2cc(O)ccc2O)cc1Cl
active: AC50 [9] 17 µM | AC50 [1] 9.48 µM | AC50 [10] 10.9 µM | AC50 [11] 33.5 µM | AC50 [12] 4.45 µM | AC50 [13] 6.42 µM | AC50 [14] 23.6 µM | AC50 [15] 49.2 µM | AC50 [16] 2.15 µM | AC50 [17] 4.76 µM

C[C@@H](CN1CCC(n2c(=O)[nH]c3ccccc32)CC1)NC(=O)c1ccc(Cl)c(Cl)c1
active: IC50 [18] 0.023 µM | IC50 [19] 0.428 µM

O=C(NCCN1CCC2(CC1)C(=O)NCN2c1ccccc1)c1cccc(F)n1
active: IC50 [18] 12 µM | IC50 [19] 4.46 µM
